Values joined by “and” are separate entries in the source; they are usually repeats but may differ in a detail not shown here. Equal entries are not always repeated. Where a SMILES comes first, the peptide text is derived from it. The star is where a group is joined. Cbz = O=C(OCc1ccccc1)*

Data set [1] has as its system MPM. The data set can be described thus: Compound in presence of MPM cells and in absence of inactivator at pH 8 to isolate compound 4 (ng). It is filed as cell-based.
Data set [2] is filed under the species Mus musculus. In words: Toxicity was evaluated for the compound at a concentration of 0.331 mM against […] Mastocytoma. Type of data set: functional.
Data set [3] can be described thus: Compound in absence of MPM cell homogenate at pH 4.5 to isolate compound 4 (ng). It is filed as ADME, cell-based.
The species entered for data set [4] is Mus musculus. In words: Toxicity toward P-815 Mastocytoma cells after 5 hr was determined as percent of [51Cr]- release from labeled cells as a measure of cell death. at a concentration of 0.331 mM. (expt III). It is filed as functional.
Data set [5] in a line: Compound in absence of MPM cell homogenate at pH 7 to isolate compound 4 (ng). It is filed as ADME, cell-based.
The nature of data set [6]: Compound in absence of MPM cell homogenate at pH 3 to isolate compound 4 (ng). It is filed as ADME, cell-based.
A short description of data set [7]: Compound treated with MPM cell homogenate at pH 4.5 to isolate compound 4 (ng). It is filed as ADME, cell-based.
The species entered for data set [8] is Mus musculus. The data set can be described thus: Toxicity was evaluated for the compound at a concentration of 0.257 mM against […] Mastocytoma. It is filed as functional.
The species entered for data set [9] is Mus musculus. The data set can be described thus: Toxicity toward P-815 Mastocytoma cells after 5 hr was determined as percent of [51Cr]- release from labeled cells as a measure of cell death. at a concentration of 0.257 mM. (expt III). Type of data set: functional.
For data set [10], the species on record is Mus musculus. In words: Toxicity toward P-815 Mastocytoma cells after 5 hr was determined as percent of [51Cr]- release from labeled cells as a measure of cell death. at a concentration of 0.281 mM. (expt IV). It is filed as functional.
Data set [11] has as its system MPM. In words: Compound (steam-treated 10 min) in presence of MPM cells at pH 3 to isolate compound 4 (ng); No data. It is filed as cell-based.
Data set [12] concerns MPM. The data set can be described thus: Compound in presence of MPM cells and in absence of inactivator at pH 3 to isolate compound 4 (ng). It is filed as cell-based.
A short description of data set [13]: Compound treated in absence of MPM cell homogenate at pH 4.5 to isolate compound 4 (ng). It is filed as ADME, cell-based.
Data set [14] is described as follows: Compound treated with MPM cell homogenate at pH 5 to isolate compound 4 (ng). Type of data set: ADME, cell-based.
Data set [15] is described as follows: Compound treated with MPM cell homogenate at pH 6 to isolate compound 4 (ng). It is filed as ADME, cell-based.
Data set [16] in a line: Compound treated with MPM cell homogenate at pH 7 to isolate compound 4 (ng). It is filed as ADME, cell-based.
Data set [17] concerns MPM. In words: Compound along with 10 uM HgCl2 in presence of MPM cells at pH 3 to isolate compound 4 (ng). It is filed as cell-based.
The species named for data set [18] is Mus musculus. In words: Cytotoxicity was determined against mouse peritoneal macrophages (MPM) and the percent of LDH released after 24 hr was determined as a measure of cell death at a concentration of 0.375 mM (expt I). Type of data set: functional. A general note: LDH in the medium is a marker of cell lysis.
Data set [19] concerns MPM. In words: Compound along with 3 mM leupeptin in presence of MPM cells at pH 3 to isolate compound 4 (ng). Type of data set: cell-based.
Data set [20] can be described thus: Compound treated with MPM cell homogenate at pH 6.5 to isolate compound 4 (ng). It is filed as ADME, cell-based.
For data set [21], the system named is MPM. In words: Compound along with 4 mM pepstatin in presence of MPM cells at pH 3 to isolate compound 4 (ng). Type of data set: cell-based.
Data set [22] in a line: Compound treated with MPM cell homogenate at pH 3.5 to isolate compound 4 (ng). Type of data set: ADME, cell-based.
Data set [23] in a line: Compound treated with MPM cell homogenate at pH 8 to isolate compound 4 (ng). Type of data set: ADME, cell-based.
Data set [24] is filed under the species Mus musculus. The data set can be described thus: Cytotoxicity was determined for the compound against mouse peritoneal macrophages (MPM) at a concentration of 0.165 mM. It is filed as functional.
Data set [25] relates to MPM. The data set can be described thus: Compound in absence of MPM cells and in absence of inactivator at pH 8 to isolate compound 4 (ng). Type of data set: cell-based.
For data set [26], the species on record is Mus musculus. In words: Appearance of mouse peritoneal macrophages after 3h of treatment with compound at a concentration of 0.375 mM; vacuoles, rounded. It is filed as functional, organism-based.
The species named for data set [27] is Mus musculus. In words: Cytotoxicity was determined against mouse peritoneal macrophages (MPM) and the percent of LDH released after 24 hr was determined as a measure of cell death at a concentration of 0.375 mM (expt II). Type of data set: functional.
Data set [28] is described as follows: Compound treated with MPM cell homogenate at pH 4 to isolate compound 4 (ng). It is filed as ADME, cell-based.
A short description of data set [29]: Compound treated with MPM cell homogenate at pH 3 to isolate compound 4 (ng). It is filed as ADME, cell-based.
A short description of data set [30]: Compound treated with MPM cell homogenate at pH 5.5 to isolate compound 4 (ng). It is filed as ADME, cell-based.
Data set [31] in a line: Compound treated with MPM cell homogenate at pH 7.5 to isolate compound 4 (ng). It is filed as ADME, cell-based.
Data set [32] is filed under the species Mus musculus. In words: Evaluated for the percent inhibition uptake of radiolabeled thymidine as a measure of inhibition of cell division against the SV40-transformed 3T3 cells after 4 hr at the concentration of 3x10E4M. Type of data set: functional, NIH3T3.
Data set [33] is filed under the species Mus musculus. In words: Evaluated for the percent inhibition uptake of radiolabeled thymidine as a measure of inhibition of cell division against the SV40-transformed 3T3 cells after 4 hr at the concentration of 1x10E4M. Type of data set: functional, NIH3T3.
The species named for data set [34] is Mus musculus. In words: Evaluated for the percent inhibition uptake of radiolabeled thymidine as a measure of inhibition of cell division against the SV40-transformed 3T3 cells after 4 hr at the concentration of 6. Type of data set: functional, NIH3T3.

As for `CCCCCCCCCCCCN(CC(F)(F)F)C(=O)[C@H](Cc1ccccc1)NC(=O)CNC(=O)OCc1ccccc1`, the Activity in the data set on MPM [1] is 20; in data set [3], 29; in [5] it was 28; in data set [6], 44; in [7] it was under 20. The molecule also registered a Toxicity in the data set filed under Mus musculus [2] of 200 µg/mL. Besides, the Cr release in the data set filed under Mus musculus [4] was 11%.
Regarding `CCCCCCCCCCCCNC(=O)[C@H](Cc1ccccc1)NC(=O)CN`, the Toxicity in the data set filed under Mus musculus [8] was found to be 100 µg/mL. The Cr release in the data set listed under Mus musculus [9] was found to be 93%.
With `O=C(CNC(=O)OCc1ccccc1)N[C@@H](Cc1ccccc1)C(=O)O` (Cbz-Gly-Phe-OH), the Cr release in the data set filed under Mus musculus [10] is on record as 16%.
Turning to `CCCCCCCCCCCCN(CC(F)(F)F)C(=O)[C@@H](Cc1ccccc1)NC(=O)CNC(=O)OCc1ccccc1`, the Activity in the data set on MPM [1] is 24; in the data set on MPM [11], 0; with MPM [12], 53; in data set [13] it was under 14; in data set [14] it was 30; in data set [15] it was 54. Moreover, the Activity in data set [16] was determined as 34; with MPM [17] it was 28; with MPM [19], 23; in [20], 28; with MPM [21], 27; in [22], 79. For the same molecule, the Activity in data set [23] is 104; in data set [3], 36; in the data set with MPM [25] it was 13; in the data set listed under Mus musculus [26] it was “vacuoles, rounded”; in [28] it was 49; in data set [29] it was 92. Moreover, the Activity is 20 in data set [5]; 22 in [30]; 52 in data set [31]; 30 in [6]; 92 and 36 in data set [7]. The LDH release in the data set listed under Mus musculus [18] stood at 73%; in the data set listed under Mus musculus [27] it was 61%. Besides, the Toxicity in the data set listed under Mus musculus [2] turned out to be 200 µg/mL; in the data set listed under Mus musculus [24] it was 100 µg/mL. This molecule also had a Cr release in the data set filed under Mus musculus [4] of 22%.
As for `CC(C)(C)OC(=O)NCC(=O)N[C@H](Cc1ccccc1)C(=O)N(CCCl)CCCl`, the Inhibition uptake in the data set filed under Mus musculus [32] is recorded as 33%; in the data set filed under Mus musculus [33], -4%; in the data set filed under Mus musculus [34], 52%.
Regarding `NCC(=O)N[C@H](Cc1ccccc1)C(=O)N(CCCl)CCCl`, the Inhibition uptake in the data set listed under Mus musculus [32] was determined as 16%; in the data set listed under Mus musculus [33], 5%; in the data set listed under Mus musculus [34], 60%.

For the origin of these results see ChEMBL document CHEMBL1122054, “Lysosomotropic agents. 4. Carbobenzoxyglycylphenylalanyl, a new protease-sensitive masking group for introduction into cells” (J Med Chem, 1982).
